Results reported in paper PMC6437697 (Journal of Medicinal Chemistry, 2019).

Experiments:
Assay in all cases: KINOMEscan
Type in all cases: binding
Details in all cases: read-out: % control activity remaining
AKT2 = molecular target: T1, AKT2 (Homo sapiens, UniProt P31751)
T1 construct: purchased Eurofins DiscoverX KINOMEscan

PIP5K1C = molecular target: T2, PIP5K1C (Homo sapiens, UniProt O60331)
T2 construct: purchased Eurofins DiscoverX KINOMEscan

TLK1 = molecular target: T3, TLK1 (Homo sapiens, UniProt Q9UKI8)
T3 construct: purchased Eurofins DiscoverX KINOMEscan
T3 sequence (Q9UKI8 1-766): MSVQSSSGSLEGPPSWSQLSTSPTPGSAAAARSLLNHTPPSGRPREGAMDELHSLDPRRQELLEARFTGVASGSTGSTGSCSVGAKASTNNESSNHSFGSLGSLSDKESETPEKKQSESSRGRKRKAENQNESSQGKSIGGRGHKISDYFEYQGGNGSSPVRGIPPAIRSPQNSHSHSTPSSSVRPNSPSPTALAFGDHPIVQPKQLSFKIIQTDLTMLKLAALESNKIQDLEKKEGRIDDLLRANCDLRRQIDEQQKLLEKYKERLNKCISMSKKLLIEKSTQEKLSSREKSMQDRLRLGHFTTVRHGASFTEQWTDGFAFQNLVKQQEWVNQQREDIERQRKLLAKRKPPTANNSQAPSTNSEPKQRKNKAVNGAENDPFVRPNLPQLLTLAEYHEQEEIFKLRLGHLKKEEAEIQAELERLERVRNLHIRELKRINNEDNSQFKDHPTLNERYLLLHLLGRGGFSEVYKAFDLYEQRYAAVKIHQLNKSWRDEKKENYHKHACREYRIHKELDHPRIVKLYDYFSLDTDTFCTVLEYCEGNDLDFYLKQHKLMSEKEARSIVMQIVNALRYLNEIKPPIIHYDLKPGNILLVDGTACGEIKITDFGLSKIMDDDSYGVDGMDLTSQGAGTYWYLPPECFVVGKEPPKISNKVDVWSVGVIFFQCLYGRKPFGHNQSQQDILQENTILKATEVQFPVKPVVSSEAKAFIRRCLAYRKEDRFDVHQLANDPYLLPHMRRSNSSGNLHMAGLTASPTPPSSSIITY

CIT = molecular target: T4, CIT (Homo sapiens, UniProt O14578)
T4 construct: purchased Eurofins DiscoverX KINOMEscan
T4 sequence (O14578 whole entry): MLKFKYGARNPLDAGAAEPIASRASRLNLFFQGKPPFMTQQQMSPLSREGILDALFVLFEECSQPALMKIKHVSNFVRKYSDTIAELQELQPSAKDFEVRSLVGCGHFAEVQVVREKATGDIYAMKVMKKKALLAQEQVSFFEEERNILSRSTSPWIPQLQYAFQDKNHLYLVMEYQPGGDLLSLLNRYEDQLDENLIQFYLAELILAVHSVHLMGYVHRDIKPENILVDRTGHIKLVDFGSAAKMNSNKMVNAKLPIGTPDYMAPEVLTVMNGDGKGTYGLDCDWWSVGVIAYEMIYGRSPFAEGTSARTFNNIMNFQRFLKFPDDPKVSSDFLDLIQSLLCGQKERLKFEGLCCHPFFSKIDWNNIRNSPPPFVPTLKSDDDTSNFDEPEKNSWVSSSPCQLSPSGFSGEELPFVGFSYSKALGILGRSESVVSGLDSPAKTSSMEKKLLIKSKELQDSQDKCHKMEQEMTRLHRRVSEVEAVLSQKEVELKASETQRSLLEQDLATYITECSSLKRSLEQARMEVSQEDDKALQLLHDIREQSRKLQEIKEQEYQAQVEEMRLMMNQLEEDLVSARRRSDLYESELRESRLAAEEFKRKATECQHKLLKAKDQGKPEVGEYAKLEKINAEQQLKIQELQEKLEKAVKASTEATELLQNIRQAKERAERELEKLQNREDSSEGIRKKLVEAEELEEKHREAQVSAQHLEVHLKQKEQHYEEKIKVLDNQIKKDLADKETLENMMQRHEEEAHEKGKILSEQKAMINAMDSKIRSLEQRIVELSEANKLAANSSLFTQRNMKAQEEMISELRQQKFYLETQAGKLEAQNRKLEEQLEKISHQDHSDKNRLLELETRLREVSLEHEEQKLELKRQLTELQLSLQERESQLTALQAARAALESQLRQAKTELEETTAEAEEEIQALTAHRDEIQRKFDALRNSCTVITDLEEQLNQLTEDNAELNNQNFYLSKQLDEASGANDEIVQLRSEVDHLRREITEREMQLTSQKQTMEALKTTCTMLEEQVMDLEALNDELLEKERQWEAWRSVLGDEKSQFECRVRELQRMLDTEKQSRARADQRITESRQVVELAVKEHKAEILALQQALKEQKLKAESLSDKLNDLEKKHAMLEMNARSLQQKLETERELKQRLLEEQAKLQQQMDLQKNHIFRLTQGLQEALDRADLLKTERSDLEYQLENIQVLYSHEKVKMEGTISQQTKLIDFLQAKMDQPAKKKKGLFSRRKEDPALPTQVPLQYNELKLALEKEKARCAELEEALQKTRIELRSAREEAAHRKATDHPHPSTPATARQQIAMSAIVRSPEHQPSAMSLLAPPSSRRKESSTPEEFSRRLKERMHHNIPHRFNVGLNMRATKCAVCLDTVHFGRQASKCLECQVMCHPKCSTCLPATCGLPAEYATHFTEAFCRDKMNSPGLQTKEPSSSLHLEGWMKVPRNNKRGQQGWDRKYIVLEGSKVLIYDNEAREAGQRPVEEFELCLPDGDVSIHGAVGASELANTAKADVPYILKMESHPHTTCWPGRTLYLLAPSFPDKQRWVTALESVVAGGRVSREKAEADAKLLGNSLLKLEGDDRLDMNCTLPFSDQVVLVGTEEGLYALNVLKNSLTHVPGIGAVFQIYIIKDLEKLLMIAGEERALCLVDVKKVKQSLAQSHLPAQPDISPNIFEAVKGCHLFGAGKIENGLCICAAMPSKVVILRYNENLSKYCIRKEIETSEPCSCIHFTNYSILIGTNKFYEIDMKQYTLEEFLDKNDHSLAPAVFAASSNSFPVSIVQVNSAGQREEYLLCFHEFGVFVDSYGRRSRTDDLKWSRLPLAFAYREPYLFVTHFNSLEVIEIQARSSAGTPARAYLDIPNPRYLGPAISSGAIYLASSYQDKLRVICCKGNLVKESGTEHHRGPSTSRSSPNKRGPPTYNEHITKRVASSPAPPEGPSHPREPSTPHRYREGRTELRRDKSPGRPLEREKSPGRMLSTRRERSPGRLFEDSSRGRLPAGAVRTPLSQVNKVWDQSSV

BMX = molecular target: T5, BMX (Homo sapiens, UniProt P51813)
T5 construct: purchased Eurofins DiscoverX KINOMEscan
T5 sequence (P51813 1-675): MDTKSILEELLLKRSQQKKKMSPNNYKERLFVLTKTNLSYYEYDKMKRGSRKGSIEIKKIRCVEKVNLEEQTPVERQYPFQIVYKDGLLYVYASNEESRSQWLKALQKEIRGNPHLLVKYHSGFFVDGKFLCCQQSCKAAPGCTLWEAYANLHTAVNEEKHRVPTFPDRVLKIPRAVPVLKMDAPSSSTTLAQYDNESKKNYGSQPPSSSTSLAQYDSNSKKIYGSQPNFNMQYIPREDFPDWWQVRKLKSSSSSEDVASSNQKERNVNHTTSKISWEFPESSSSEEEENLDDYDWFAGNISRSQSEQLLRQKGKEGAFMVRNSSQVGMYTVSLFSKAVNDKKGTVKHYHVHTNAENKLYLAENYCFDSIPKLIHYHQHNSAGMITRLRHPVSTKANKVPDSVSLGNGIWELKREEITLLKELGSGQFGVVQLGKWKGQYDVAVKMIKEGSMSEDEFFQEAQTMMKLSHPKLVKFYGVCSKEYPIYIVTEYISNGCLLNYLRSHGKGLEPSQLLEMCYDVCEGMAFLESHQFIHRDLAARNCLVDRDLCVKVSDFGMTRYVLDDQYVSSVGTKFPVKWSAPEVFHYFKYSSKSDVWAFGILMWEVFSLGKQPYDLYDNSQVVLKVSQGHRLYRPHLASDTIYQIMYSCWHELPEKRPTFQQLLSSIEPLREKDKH

PRKX = molecular target: T6, PRKX (Homo sapiens, UniProt P51817)
T6 construct: purchased Eurofins DiscoverX KINOMEscan
T6 sequence (P51817 1-358): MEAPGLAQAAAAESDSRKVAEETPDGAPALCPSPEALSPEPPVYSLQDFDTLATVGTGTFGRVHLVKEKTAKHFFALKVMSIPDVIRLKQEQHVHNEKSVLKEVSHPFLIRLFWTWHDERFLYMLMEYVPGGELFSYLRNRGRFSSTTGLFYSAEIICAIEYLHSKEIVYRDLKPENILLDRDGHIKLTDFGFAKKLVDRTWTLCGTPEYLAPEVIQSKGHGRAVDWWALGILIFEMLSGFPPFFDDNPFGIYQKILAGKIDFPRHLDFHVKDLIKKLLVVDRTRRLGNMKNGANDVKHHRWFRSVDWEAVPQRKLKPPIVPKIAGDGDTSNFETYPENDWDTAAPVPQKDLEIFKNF

ERBB2 = molecular target: T7, ERBB2 (Homo sapiens, UniProt P04626)
T7 construct: purchased Eurofins DiscoverX KINOMEscan
T7 sequence (P04626 23-1255 limits assumed): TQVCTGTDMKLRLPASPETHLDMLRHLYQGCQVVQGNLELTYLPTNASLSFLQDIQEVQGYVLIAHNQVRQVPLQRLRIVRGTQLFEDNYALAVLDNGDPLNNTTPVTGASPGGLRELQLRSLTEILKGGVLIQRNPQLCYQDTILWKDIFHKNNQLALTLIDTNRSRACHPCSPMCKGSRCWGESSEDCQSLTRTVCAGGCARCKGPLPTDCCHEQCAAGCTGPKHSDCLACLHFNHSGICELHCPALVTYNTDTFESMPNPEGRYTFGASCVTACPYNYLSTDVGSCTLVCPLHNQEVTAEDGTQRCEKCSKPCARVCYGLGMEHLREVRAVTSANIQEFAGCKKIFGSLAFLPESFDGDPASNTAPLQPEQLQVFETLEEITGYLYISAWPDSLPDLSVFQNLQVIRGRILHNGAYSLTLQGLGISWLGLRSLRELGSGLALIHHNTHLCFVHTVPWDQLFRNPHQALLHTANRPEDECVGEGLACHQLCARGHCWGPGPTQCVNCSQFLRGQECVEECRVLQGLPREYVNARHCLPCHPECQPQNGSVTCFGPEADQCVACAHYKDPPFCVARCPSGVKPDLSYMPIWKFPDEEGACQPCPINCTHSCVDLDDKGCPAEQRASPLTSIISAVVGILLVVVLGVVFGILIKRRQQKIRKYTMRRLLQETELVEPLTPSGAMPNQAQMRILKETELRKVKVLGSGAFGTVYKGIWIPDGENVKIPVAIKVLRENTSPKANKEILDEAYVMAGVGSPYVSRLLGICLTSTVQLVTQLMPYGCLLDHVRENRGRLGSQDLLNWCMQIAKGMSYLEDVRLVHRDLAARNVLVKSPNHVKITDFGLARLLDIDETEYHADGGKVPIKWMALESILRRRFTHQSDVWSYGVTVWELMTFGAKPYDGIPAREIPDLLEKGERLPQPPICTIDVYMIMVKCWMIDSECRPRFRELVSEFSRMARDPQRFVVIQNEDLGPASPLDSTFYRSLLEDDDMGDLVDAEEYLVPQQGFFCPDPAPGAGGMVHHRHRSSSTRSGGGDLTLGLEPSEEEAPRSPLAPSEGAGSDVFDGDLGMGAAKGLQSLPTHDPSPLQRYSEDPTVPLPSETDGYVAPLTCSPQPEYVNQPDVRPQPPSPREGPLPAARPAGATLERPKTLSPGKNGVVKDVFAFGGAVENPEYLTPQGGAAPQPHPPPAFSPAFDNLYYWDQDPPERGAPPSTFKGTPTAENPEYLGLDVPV

T1 sequence (P31751 whole entry): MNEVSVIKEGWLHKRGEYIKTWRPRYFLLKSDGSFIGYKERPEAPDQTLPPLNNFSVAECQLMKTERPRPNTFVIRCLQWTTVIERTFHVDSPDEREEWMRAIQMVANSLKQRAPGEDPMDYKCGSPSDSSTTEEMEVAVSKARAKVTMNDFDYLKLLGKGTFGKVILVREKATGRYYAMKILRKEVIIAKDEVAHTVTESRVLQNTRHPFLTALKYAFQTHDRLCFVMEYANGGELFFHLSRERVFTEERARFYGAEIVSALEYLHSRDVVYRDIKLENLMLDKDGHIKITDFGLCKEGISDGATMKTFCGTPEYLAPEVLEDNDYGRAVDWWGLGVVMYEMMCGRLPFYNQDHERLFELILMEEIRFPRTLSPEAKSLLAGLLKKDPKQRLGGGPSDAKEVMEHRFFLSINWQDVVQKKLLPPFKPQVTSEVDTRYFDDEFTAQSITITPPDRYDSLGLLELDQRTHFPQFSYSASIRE
T2 sequence (O60331 whole entry): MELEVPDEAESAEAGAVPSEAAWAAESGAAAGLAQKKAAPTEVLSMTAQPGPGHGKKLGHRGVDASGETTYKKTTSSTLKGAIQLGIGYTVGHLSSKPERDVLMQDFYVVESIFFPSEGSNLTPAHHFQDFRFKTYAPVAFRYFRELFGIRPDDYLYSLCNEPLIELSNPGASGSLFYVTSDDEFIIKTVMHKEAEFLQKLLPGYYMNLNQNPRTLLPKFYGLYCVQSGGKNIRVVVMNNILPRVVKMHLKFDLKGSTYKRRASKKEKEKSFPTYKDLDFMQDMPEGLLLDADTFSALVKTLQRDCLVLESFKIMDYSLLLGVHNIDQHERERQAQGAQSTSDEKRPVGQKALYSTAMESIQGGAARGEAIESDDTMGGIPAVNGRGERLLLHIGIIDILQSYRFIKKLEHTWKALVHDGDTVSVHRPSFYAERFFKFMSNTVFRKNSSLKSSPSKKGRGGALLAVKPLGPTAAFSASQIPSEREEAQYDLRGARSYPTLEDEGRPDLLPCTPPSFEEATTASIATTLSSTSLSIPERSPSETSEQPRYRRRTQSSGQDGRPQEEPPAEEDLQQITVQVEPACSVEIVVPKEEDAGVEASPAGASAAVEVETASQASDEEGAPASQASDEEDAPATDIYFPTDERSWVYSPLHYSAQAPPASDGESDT

| Compound | remaining binding at 1 µM (AKT2) [%] | remaining binding at 1 µM (PIP5K1C) [%] | remaining binding at 1 µM (TLK1) [%] | remaining binding at 1 µM (CIT) [%] | remaining binding at 1 µM (BMX) [%] | remaining binding at 1 µM (PRKX) [%] | remaining binding at 1 µM (ERBB2) [%] |
| --- | --- | --- | --- | --- | --- | --- | --- |
| Clc1cc(NCC2CC2)c2ncc(-c3ccc4[nH]ncc4c3)n2n1 [compound 2, 6-Chloro-N-(cyclopropylmethyl)-3-(1H-indazol-5-yl)imidazo[1,2-b]pyridazin-8-amine] | 99 | 85 | 96 | 73 | 96 | 91 | 100 |
| O=C(CN1CCOCC1)N[C@H]1CC[C@H](Nc2cc(Cl)nn3c(-c4ccc5[nH]ncc5c4)cnc23)CC1 [compound 26] | 99 | 91 | 87 | 74 | 92 | 80 | 97 |
| CN1CCC(CNc2cc(Cl)nn3c(-c4cc5nc(Nc6ccccc6)[nH]c5cc4F)cnc23)CC1 [compound 31, 6-Chloro-3-(6-fluoro-2-(phenylamino)-1H-benzo[d]imidazol-5-yl)-N-((1-methylpiperidin-4-yl)methyl)imidazo[1,2-b]pyridazin-8-amine] | 80 | 84 | 93 | 85 | 100 | 100 | 84 |
